Results: patent US20120034250A1, “CONDENSED PYRROLOPYRIDINE DERIVATIVE” (Astellas Pharma Inc., priority 2009, published 2012)

Experiments:
[1] = target: T1, human JAK3 kinase domain (Homo sapiens, UniProt P52333); assay: JAK inhibition test: measurement of JAK3 activity; assay type: biochemical; conditions: 20 μM ATP, absorbance at 450 nm
T1 construct: attached to the N-terminal of the 796 to 1124 (C-terminal) fragment of the human JAK3 protein; His tag (N); purchased Carna Biosciences, Inc. (Kobe, Japan); host or cells: baculovirus expression system
T1 sequence (P52333 796-1124): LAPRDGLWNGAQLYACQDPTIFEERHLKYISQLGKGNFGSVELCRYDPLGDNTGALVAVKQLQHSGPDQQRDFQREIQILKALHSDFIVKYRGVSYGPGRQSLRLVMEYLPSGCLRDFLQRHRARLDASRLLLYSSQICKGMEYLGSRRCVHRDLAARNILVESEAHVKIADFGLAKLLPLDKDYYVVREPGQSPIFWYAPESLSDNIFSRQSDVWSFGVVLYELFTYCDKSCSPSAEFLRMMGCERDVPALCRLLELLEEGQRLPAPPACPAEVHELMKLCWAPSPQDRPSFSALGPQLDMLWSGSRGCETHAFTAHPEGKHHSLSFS
Text: (5) Preparation of Human JAK3
(§1) A purified human JAK3 kinase domain was purchased from Carna Biosciences, Inc. (Kobe, Japan). This was obtained as follows. A His tag (41 kDa) was attached to the N-terminal of the 796 to 1124 (C-terminal) fragment of the human JAK3 protein (accession number #NM_000215), expressed using a baculovirus expression system, and then purified using Ni-NTA affinity column chromatography.
(6) Measurement of JAK3 Activity
(§2) As substrates, Biotin-Lyn-Substrate-2 (Biotin-XEQED EPEGF YFEWL EPE, X=ε−Acp (Peptide Institute, Inc., Osaka, Japan) and ATP were used. As an assay buffer, 15 mM Tris-HCl pH 7.5 containing 0.01% Tween 20 and 2 mM DTT was used. Normally, 20 μL of a substrate solution (an assay buffer containing 627 nM Biotin-Lyn-Substrate-2, 20 μM ATP, and 25 mM MgCl2), an assay buffer containing 10 μL of a test compound, and 20 μL of an enzyme solution
(§3) After incubation at room temperature for 1 hour, the plate was washed with a cleaning buffer (50 mM Tris-HCl pH 7.5, 150 mM NaCl, 0.02% Tween 20), and a blocking buffer (a cleaning buffer containing 0.1% bovine serum albumin) was added to the plate. After incubation at room temperature for 30 minutes, the blocking buffer was removed, and an HRP-PY-20 solution (obtained by diluting HRP-PY-20 solution with the blocking buffer 500 times) was added. After incubation at room temperature for 30 minutes, the plate was washed four times, and a TMB substrate solution (Sigma) was added to the plate. After incubation at room temperature for 4 minutes, 1 M sulfuric acid was added to stop the reaction. Enzyme activity was measured with an absorbance at 450 nm. The JAK3 inhibitory activity of the test compound was calculated by taking the concentration of the test compound which inhibits the JAK3 activity by 50% as an IC50 value.

[2] = target: T2, human JAK2 kinase domain (Homo sapiens, UniProt O60674); assay: JAK inhibition test: measurement of JAK2 activity; assay type: biochemical; conditions: 25 μM ATP, absorbance at 450 nm
T2 construct: attached to the N-terminal of the 826 to 1132 (C-terminal) fragment of the human JAK2 protein; His tag (N); purchased Carna Biosciences, Inc. (Kobe, Japan); host or cells: baculovirus expression system
T2 sequence (O60674 826-1132): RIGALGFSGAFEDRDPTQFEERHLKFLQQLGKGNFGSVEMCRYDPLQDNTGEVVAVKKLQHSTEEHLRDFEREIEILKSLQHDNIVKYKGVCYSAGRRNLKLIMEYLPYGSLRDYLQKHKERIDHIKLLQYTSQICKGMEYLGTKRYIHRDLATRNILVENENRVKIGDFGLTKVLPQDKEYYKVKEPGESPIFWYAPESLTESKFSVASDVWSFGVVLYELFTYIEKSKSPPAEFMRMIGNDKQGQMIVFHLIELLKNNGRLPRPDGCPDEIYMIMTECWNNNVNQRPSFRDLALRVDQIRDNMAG
Text: (3) Preparation of Human JAK2
as §1, with “JAK2” for “JAK3”, “(39” for “(41”, “826” for “796”, “1132” for “1124”, “#NP_004963.1),” for “#NM_000215),”
(4) Measurement of JAK2 Activity
as §2, with “nM Biotin-Lyn-Substrate-2, 25 μM ATP,” for “nM Biotin-Lyn-Substrate-2, 20 μM ATP,”, “enzyme solution were added to a microplate, and stirred sufficiently.” for “enzyme solution”
as §3, with “JAK2” for “JAK3”

[3] = target: T3, human JAK1 kinase domain (Homo sapiens, UniProt P23458); assay: JAK inhibition test: measurement of JAK1 activity; assay type: biochemical; conditions: 500 μM ATP, absorbance at 450 nm
T3 construct: attached to the N-terminal of the 850 to 1154 (C-terminal) fragment of the human JAK1 protein; GST (N); purchased Carna Biosciences, Inc. (Kobe, Japan); host or cells: baculovirus expression system
T3 sequence (P23458 850-1154): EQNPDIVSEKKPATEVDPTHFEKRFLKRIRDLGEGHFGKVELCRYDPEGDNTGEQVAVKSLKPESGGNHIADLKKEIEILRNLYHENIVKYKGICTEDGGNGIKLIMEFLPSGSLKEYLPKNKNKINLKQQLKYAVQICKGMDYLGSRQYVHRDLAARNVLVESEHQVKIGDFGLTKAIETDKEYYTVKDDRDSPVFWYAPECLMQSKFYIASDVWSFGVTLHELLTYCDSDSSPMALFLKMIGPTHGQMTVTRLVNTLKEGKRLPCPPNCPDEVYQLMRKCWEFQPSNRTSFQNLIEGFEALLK
Text: (1) Preparation of Human JAK1
A purified human JAK1 kinase domain was purchased from Carna Biosciences, Inc. (Kobe, Japan). This was obtained as follows. A GST tag (62 kDa) was attached to the N-terminal of the 850 to 1154 (C-terminal) fragment of the human JAK1 protein (accession number #BAD92294.1), expressed using a baculovirus expression system, and then purified using Glutathion Sepharose chromatography.
(2) Measurement of JAK 1 Activity
as §2, with “nM Biotin-Lyn-Substrate-2, 500 μM ATP,” for “nM Biotin-Lyn-Substrate-2, 20 μM ATP,”, “enzyme solution were added to a microplate, and stirred sufficiently.” for “enzyme solution”
as §3, with “JAK1” for “JAK3”

[4] = tested on: stat5 phosphorylation of CD3+lymphocytes in the blood; assay: Measurement of PD activity (stat5 phosphorylation in blood after oral dosing); assay type: in vivo, rat; conditions: 20 mg/kg orally to normal rats, blood collected 4 hours later, cytokine stimulation, FACS
Experimental: Measurement of PD activity was carried out by evaluating the degree of stat5 phosphorylation of CD3+lymphocytes in the blood.
Compounds at (20 mg/kg) were orally administered to normal rats, and 4 hours later, 200 μL of blood was collected therefrom. For phosphorylation of stat5, stimulating cytokines (IL-2, 7, 15, etc., Peprotec) were added thereto, and CD3 antibodies fluorescently labeled (BD pharmingen) was added at a dose of 1/20, followed by incubation at 37° C. 5 mL of a lysing buffer (BD Pharmingen) was added to stop the reaction, and then washed by the addition of PBS (−) (Phosphate Buffered Saline (−), manufactured by Shin Yang Chemical Industries, Ltd.). 300 μL of a permeabilization buffer (BD Pharmingen) was added thereto, followed by immobilization on ice. The resultant was washed with a FACS buffer, and then fluorescently-labeled phosphorylation stat5 antibodies (BD Pharmingen) were added thereto, followed by further incubation at room temperature. After incubation, the cells were washed with a FACS buffer, insoluble materials were removed through a filter. Fluorescence measurement was carried out using a FACScalibur. For an individual of each rat, a sample with addition of cytokine and a sample without addition of cytokine were prepared, and a difference of the respective average fluorescence intensities (AMFI) was determined. As a control, the blood of rats to which the compound had not been administered was used, and an inhibitory rate was calculated from the average fluorescence intensity of the respective group of the samples to which the compound had been added, relative to the average fluorescence intensity of the control sample (Inhibitory Rate (%)=100*(1−(ΔMFI of Sample)/(ΔMFI of Control)).

[5] = tested on: heart transplantation rejection; assay: Rat heart transplantation (heterotopic, ACI donor to Lewis recipient); assay type: in vivo; conditions: 20 mg/kg orally once daily for 14 days from transplantation, observed 29 days
Experimental: Heterotopic heart transplantation into the rat abdomen was performed in accordance with reference materials. With regard to the animals, ACI-based male rats were used as donors and Lewis-based male rats were used as recipients. In addition, Lewis rats were fasted the day before the transplant. The test drugs were orally administered at a dose of 20 mg/kg once daily for 14 days from the date of transplantation. For determining the heart transplantation rejection, the heart transplantation was observed daily by palpation for 29 days after transplantation, and stoppage of beating was taken as rejection. The survival period in days was counted until the day before rejection. From the survival period in days, a value of MST (Median Survival Time) was determined.

Structure (SMILES) | melting point | IC50 [1] [nM] | IC50 [2] [nM] | IC50 [3] [nM] | Inhibition Ratio (stat5 phosphorylation) [4] [%] | MST (Median Survival Time) [5] [days]
C[C@@H]1CCN(c2cnc(C#N)cn2)C[C@@H]1n1ccc2cnc3[nH]ccc3c21 (racemic) [Example 4-1] | – | 0.88 | 3 | 7.9 | – | –
O[C@]12CC3C[C@H](C1)[C@H](n1ccc4cnc5[nH]ccc5c41)[C@@H](C3)C2 [Example 1, (1S,3R,4R,5s)-4-(dipyrrolo[2,3-b:2′,3′-d]pyridin-1(6H)-yl)adamantan-1-ol] | – | 1 | 1.6 | 6.1 | – | –
C[C@@H]1CCN(S(=O)(=O)N(C)CC#N)C[C@@H]1n1ccc2cnc3[nH]ccc3c21 (racemic) [Example 9-3] | – | – | – | – | 62 | –
C[C@@H]1CCN(c2ccc(C#N)cn2)C[C@@H]1n1ccc2cnc3[nH]ccc3c21 (racemic) [Example 4] | – | 1.1 | 3.5 | 16 | – | –
Cc1cc2cnc3[nH]ccc3c2n1[C@H]1CN(C(=O)CC#N)CC[C@H]1C (racemic) [Example 2-74] | – | – | – | – | 98 | –
C[C@@H]1CCN(C(=O)CC#N)C[C@@H]1n1ccc2cnc3[nH]ccc3c21 [Example 2-10] | – | 0.19 | 0.35 | 0.49 | – | 17
C[C@@H]1CCN(C(=O)CC#N)C[C@@H]1n1ccc2cnc3[nH]ccc3c21 (racemic) [Example 2-7] | – | – | – | – | 95 | >28

Further lines, with some results ahead:

melting point | IC50 [1] [nM] | IC50 [2] [nM] | IC50 [3] [nM] | Structure (SMILES) | Inhibition Ratio (stat5 phosphorylation) [4] [%] | MST (Median Survival Time) [5] [days]
286 to 290 °C (dec.) | – | – | – | C[C@H]1CCN(C(=O)CC#N)C[C@H]1n1ccc2cnc3[nH]cc(C#N)c3c21 [Example 2-18] | – | –
– | 1.3 | 2.9 | 4.7 | Cc1nnnn1CC(=O)N1CC[C@@H](C)[C@@H](n2ccc3cnc4[nH]ccc4c32)C1 (racemic) [Example 2-15] | – | –
– | 0.52 | 2.5 | 3.1 | C[C@@H]1CCN(C(=O)Cn2cnnn2)C[C@@H]1n1ccc2cnc3[nH]ccc3c21 (racemic) [Example 2-14] | – | –
288 to 290 °C (dec.) | 0.11 | 1.4 | 3.2 | C[C@@H]1CCN(C(=O)CC#N)C[C@@H]1n1ccc2cnc3[nH]cc(C#N)c3c21 [Example 2-19] | – | –
– | 0.3 | 0.6 | 1.1 | C[C@@H]1CCN(C(=O)CC#N)C[C@@H]1n1cc(Br)c2cnc3[nH]ccc3c21 (racemic) [Example 2-5] | 86 | –
– | 0.26 | 1 | 6.8 | C[C@@H]1CCN(C(=O)CC#N)C[C@@H]1n1ccc2cnc3[nH]cc(Br)c3c21 (racemic) [Example 2-4] | – | –
– | 0.61 | 0.89 | 3 | C[C@@H]1CCN(C(=O)N(C)CC#N)C[C@@H]1n1ccc2cnc3[nH]ccc3c21 (racemic) [Example 5-1] | – | –
– | 0.27 | 2.5 | 6.9 | C[C@@H]1CCN(C(=O)CC#N)C[C@@H]1n1cc(Br)c2cnc3[nH]cc(C#N)c3c21 (racemic) [Example 2-2] | – | –
– | 0.41 | 0.53 | 0.76 | C[C@@H]1CCN(C(=O)CC#N)C[C@@H]1n1cc(-c2ccncc2)c2cnc3[nH]cc(C#N)c3c21 (racemic) [Example 2-17] | – | –
